Assay results: patent US5594027A, “Aminocycloalkanobenzodioxoles as beta-3 selective adrenergic agents” (American Cyanamid Company, priority 1995, dated 1997)
Where a name gives a salt, the structure may show the parent alone.

Tests used:
β1-adrenergic receptor = target: T1, β1-adrenergic receptor (Rattus norvegicus, UniProt P18090); assay: Heart membrane binding (β1-effect), [125I]iodocyanopindolol; details: rat heart membranes, 1 hour
T1 construct: membranes from rat heart; from tissue; host or cells: rat heart membranes
T1 sequence (P18090 whole entry): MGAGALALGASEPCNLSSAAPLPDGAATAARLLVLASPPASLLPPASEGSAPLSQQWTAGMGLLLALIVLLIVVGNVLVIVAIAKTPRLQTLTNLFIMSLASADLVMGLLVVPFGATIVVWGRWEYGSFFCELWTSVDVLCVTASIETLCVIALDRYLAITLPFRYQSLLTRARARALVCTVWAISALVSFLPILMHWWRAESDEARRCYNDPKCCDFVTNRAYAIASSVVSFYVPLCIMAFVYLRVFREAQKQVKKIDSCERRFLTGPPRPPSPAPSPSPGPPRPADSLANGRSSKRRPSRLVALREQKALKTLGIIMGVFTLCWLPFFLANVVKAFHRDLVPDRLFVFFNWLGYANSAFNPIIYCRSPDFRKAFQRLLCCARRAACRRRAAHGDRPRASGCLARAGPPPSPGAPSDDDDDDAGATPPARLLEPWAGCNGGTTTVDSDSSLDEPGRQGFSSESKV
Description: (§1) β-Adrenergic receptors can be divided into β1, β2 and β 3-subtypes. Activation of β1 -receptors invokes increases in heart rate while activation of β2 -receptors stimulates glycogen breakdown in muscle and thereby prevents glycogen synthesis. Activation of β3 -receptors stimulates lipolysis (the breakdown of adipose tissue triglycerides to glycerol and free fatty acids), and thereby promotes the loss of fat mass. Ccmpounds that stimulate β3 -receptors will have antiobesity activity. In addition, they have hypoglycemic or anti-diabetic activity, but the mechanism of this effect is unknown. A compound that selectively stimulates β3 -receptors, i.e. has little or no β1 or β2 -activity, will have the desired anti-diabetic and/or anti-obesity activity, but without the undesired effects of increased heart rate (β1 -effect) or muscle tremor (β2 -effect).
(§2) Selectivity of a compound is determined using the following procedures.
Binding assays for β1 -effect are carried out by the use of membranes from rat heart, and β2 -effect by the use of membranes from rat lung by the method described in Neve, et al., J. Pharmacol. Exp. Ther., 1985, 235, 657-664 with the following exceptions:
1. the incubation volume is 0.5 ml,
2. the incubation time is 1 hour,
3. the radioligand is [^125 I]iodocyanopindolol,
4. (-)-isoproterenol (50 μM) is used to define specific binding, and
5. the filters are washed at 4° C.

β3-adrenergic receptor = target: T2, β3-adrenergic receptor (Rattus norvegicus, UniProt P26255); assay: Stimulation of adipocyte lipolysis (β3-effect), glycerol generated; assay type: cell-based; details: rat epididymal adipocytes, 30 min at 37° C.; concentration giving 50% of the compound's own maximum rate of lipolysis; read-out: Lipolysis (beta3)(EC50 nM)
T2 construct: Rat epididymal fat pads are excised and placed in 0.9% saline; from tissue; host or cells: adipocytes isolated by collagenase from rat epididymal fat pads
T2 sequence (P26255 whole entry): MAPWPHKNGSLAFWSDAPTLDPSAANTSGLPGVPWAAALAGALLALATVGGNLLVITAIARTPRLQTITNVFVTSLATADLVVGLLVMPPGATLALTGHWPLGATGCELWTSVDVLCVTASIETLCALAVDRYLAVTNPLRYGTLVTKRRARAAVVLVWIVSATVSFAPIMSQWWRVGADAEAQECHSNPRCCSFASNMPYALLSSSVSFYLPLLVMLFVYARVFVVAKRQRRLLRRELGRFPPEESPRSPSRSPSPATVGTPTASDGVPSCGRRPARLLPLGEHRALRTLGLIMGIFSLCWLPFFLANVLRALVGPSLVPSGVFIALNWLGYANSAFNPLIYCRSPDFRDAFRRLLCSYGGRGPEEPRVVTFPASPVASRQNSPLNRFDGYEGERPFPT
Description: as §1, §2
The β3 -effect of the compounds is determined by their ability to stimulate adipocyte lipolysis. Rat epididymal fat pads are excised and placed in 0.9% saline. Four grams of tissue is transferred to a flask with 20 ml of aerated Krebs-Henseleit bicarbonate (KHB) buffer containing 3% fatty acid-free bovine serum albumin to which 75 mg of crude bacterial collagenase (Worthington) has been added. The tissue is incubated for about 45 minutes at 37° C. with gentle shaking. The cells are then washed three times with two volumes of KHB buffer, filtered through two layers of gauze, and brought to a final volume of 80 ml with KHB buffer. One ml aliquots of the cell suspension is added to plastic test tubes containing the appropriate additions of vehicle or compound. The cells are gassed for 1 minute with 95%O2 -5%CO2, capped, and incubated at 37° C. with continuous shaking for a total of 30 minutes. The reaction is stopped by adding 0.1 ml of 30% perchloric acid and 0.1 ml of chloroform. After centrifugation, 0.5 ml of supernatant is transferred to another test tube and neutralized with 0.04 ml of 3M K2 CO3 -0.5M triethanolamine. The amount of glycerol generated from the hydrolysis of endogenous triglycerides is determined in a coupled-enzyme spectrophotometric assay. One-tenth milliliter of the neutralized extract is added to a test tube that contains 0.91 ml of assay mixture comprised of the following: 0.84M glycine, 0.42M hydrazine sulfate, 4.2 mM EDTA, 0.9 mM β-NAD, 9.9 mM MgCl2, 1 mM ATP, 17 U of glycerophosphate dehydrogenase, and 4.3 U of glycerokinase. The test tubes are incubated for 40 minutes at 37° C. with constant shaking. The amount of NADH generated, which is proportional to the amount of glycerol, is determined by the increase in absorbance at 340 nm. […]

Compound | IC50 (β1-adrenergic receptor) [nM] | EC50 (β3-adrenergic receptor) [nM]
O=C(O)C1(C(=O)O)Oc2ccc3c(c2O1)C[C@@H](NC[C@H](O)c1cccc(Cl)c1)C3 [Example 3, [R-(R*,R* or R*,S*)]7-[[2-(3-Chlorophenyl)-2-hydroxyethyl]amino]-7,8-dihydro-6H-indeno[4,5-d]-1,3-dioxole-2,2-dicarboxylic acid disodium salt] | > 1000 | 2590
O=C(O)C1(C(=O)O)Oc2ccc3c(c2O1)C[C@H](NC[C@H](O)c1cccc(Cl)c1)C3 [Example 4, [R-(R*,R* or R*,S*)]-7-[[2-(3-Chlorophenyl)-2-hydroxyethyl]amino]-7,8-dihydro-6H-indeno[4,5-d]-1,3-dioxole-2,2-dicarboxylic acid disodium salt] | > 1000 | 14.6
O=C(O)C1(C(=O)O)Oc2cc3c(cc2O1)CC(NC[C@H](O)c1cccc(Cl)c1)C3 [Example 5, (R)-7-[[2-(3-Chlorophenyl)-2-hydroxyethyl]amino]7,8-dihydro-6H-indeno[5,6-d]-1,3-dioxole-2,2-dicarboxylic acid disodium salt] | > 1000 | 100
O=C(O)C1(C(=O)O)Oc2cc3c(cc2O1)CC(NCC(O)c1cccc(Cl)c1)CC3 (stereo not drawn) [Example 7, (R*,R*), and (R*,S*)-6-[[2-(3-Chlorophenyl)-2-hydroxyethyl]amino]-5,6,7,8-tetrahydronaphtho[2,3-d]-1,3-dioxole-2,3-dicarboxylic acid disodium salt] | > 1000 | 4000
